Data from paper PMC5062073, “Cellular uptake of a cystine-knot peptide and modulation of its intracellular trafficking” (Scientific Reports, 2016).

Legend:
[1] = SGF with pepsin, pH 1.2, 37 °C, peptide 0.3 mg/ml, after several days; LC/MS, A214nm peak area vs internal standard
Protocol: Peptides were incubated at a concentration of 0.3 mg/ml in simulated gastric fluid at 37 °C for the indicated times. To prepare simulated gastric fluid, 2 g of sodium chloride, 43 mg of sodium thaurocholate, 16 mg of lecithin and 100 mg of pepsin were dissolved in 1 L of Milli-Q water (18.2 MΩ.cm^−1) and adjusted to pH 1.2 with 37% hydrochloric acid. At the indicated time points, 10 μl (3 μg) aliquots were removed from the reaction, quenched with 0.25 M NaOH and then mixed with 2.6 μg of the internal standard. Samples were immediately analyzed by analytical LC/MS (Agilent 1200 series) and the area under the A214nm peak was quantified.

[2] = target: T1, trypsin (Bos taurus, UniProt P00760); assay: Trypsin enzymatic assay; type: biochemical
T1 construct: gene PRSS1
T1 sequence (P00760 24-246): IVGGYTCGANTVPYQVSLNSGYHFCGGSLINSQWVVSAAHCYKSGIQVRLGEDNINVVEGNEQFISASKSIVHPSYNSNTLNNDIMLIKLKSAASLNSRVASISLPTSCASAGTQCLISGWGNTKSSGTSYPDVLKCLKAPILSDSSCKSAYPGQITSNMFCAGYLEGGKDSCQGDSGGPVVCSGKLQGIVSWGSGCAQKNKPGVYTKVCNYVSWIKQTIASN
Protocol: Assays were done as described earlier with slight modification. Briefly, normalized proteolytic activity of trypsin (2.3 pM) toward tosyl-GPR-AMC substrate (5 μM) was measured for 2 h after pre-incubation of the peptides with protease for 1 h at room temperature. The data were plotted and fitted using KaleidaGraph v3.6 software. Apparent […] (Ki^app) was determined from at least three independent measurements.

[3] = target: trypsin (UniProt P00760); assay: enzyme inhibition assay (trypsin proteolytic activity on a fluorogenic substrate); apparent; trypsin 2.3 pM, tosyl-GPR-AMC substrate 5 uM, activity measured for 2 h after pre-incubation of the peptides with protease for 1 h at room temperature

Ki [3]	Molecule	remaining in simulated gastric fluid [1]	Ki [2]
	CC[C@H](C)[C@@H]1NC(=O)[C@H](CCCNC(=N)N)NC(=O)[C@@H]2CCCN2C(=O)[C@@H](NC(=O)CNC(=O)[C@H](CO)NC(=O)CN)CSSC[C@@H]2NC(=O)CNC(=O)[C@H](C)NC(=O)[C@H](CC(C)C)NC(=O)[C@@H]3CSSC[C@@H](C(=O)NCC(=O)NCC(=O)N[C@@H](CC(N)=O)C(=O)N[C@@H](CO)C(=O)O)NC(=O)[C@H](Cc4ccccc4)NC(=O)CNC(=O)[C@H](CC(N)=O)NC(=O)[C@@H]4CCCN4C(=O)CNC(=O)[C@H](CSSC[C@H](NC(=O)[C@H](CCCNC(=N)N)NC(=O)[C@H](CCSC)NC(=O)[C@H](CC(C)C)NC1=O)C(=O)N[C@@H](CCCCN)C(=O)N[C@@H](CCC(N)=O)C(=O)N[C@@H](CC(=O)O)C(=O)N[C@@H](CO)C(=O)N[C@@H](CC(=O)O)C(=O)N3)NC(=O)[C@H](C(C)C)NC2=O [rEETI-II]	50%	0.16 ± 0.01 nM
0.71 nM	Alexa488-labeled recombinant EETI-II (peptide)		
0.16 nM	recombinant EETI-II (Ecballium elaterium trypsin inhibitor II) (peptide)		
